Experimental findings from patent publication US20210171948A1, “COMPOSITIONS AND METHODS FOR TARGETING GLYPICAN-2 IN THE TREATMENT OF CANCER” (Shepherd Therapeutics, Inc., priority 2019, published 2021) are described below.

Strand notation (5' to 3'): a small letter for the sugar, then the base; units joined by * are phosphorothioate-linked, units joined directly phosphodiester-linked; [ ] holds rarer units or linkages, { } end groups; capitals alone tell only the bases. d = 2'-deoxy (DNA); r = 2'-OH (RNA)

Format in all cases: cell-based
For data set [1], the system named is CHP212, SKNAS and SHSY5Y neuroblastoma cell lines. As to the kind of experiment: Cell viability after siRNA transfection, 96 hour (Example 4, FIG. 3B). The following applies: 96 hour incubation (FIG. 3B). The procedure: GPC2 mRNA knockdown was assessed in multiple neuroblastoma cell lines. Cells were transfected with either a scrambled control siRNA, with GPC2 siRNA sequences 3 or 5 from Table 7, or with siRNA sequences generated by Dharmacon (sequences 12-15 from Table 7) using the RNAiMAX Lipofectamine kit (Invitrogen, Carlsbad, Calif.) as previously described. Following a 96 hour incubation period, total RNA samples were collected to compare knockdown efficiency and viability was measured in parallel plated cells.

Data set [2] deals with RH30 cells. Briefly: Cisplatin IC50 in siRNA-transfected cells, Cell Titer Glo 2.0 viability (Example 5). The method, then:
(§1) GPC2 mRNA was reduced using the indicated siRNAs and changes in cell viability were assessed in multiple cancer cell lines, in combination with Cisplatin treatment. Cells were transfected with either a scrambled control siRNA or with GPC2 siRNA sequences 3 or 5 from Table 7 using the RNAiMAX Lipofectamine kit (Invitrogen, Carlsbad, Calif.), as previously described, in either in 96 well (for viability assays) or 6 well format (for total RNA). Cisplatin was added at increasing concentrations (0 to 30 uM) to transfected cells at 24 hours post transfection. Following a 72 hour incubation period, cell viability was measured using Cell Titer Glo 2.0. Total RNA samples were also isolated to measure knockdown efficiency.
For orientation: ATP-based viability assays read luminescence as a measure of living cells.

In data set [3] the test system is GIST-T1 cells. Described as above. The following applies: GIST-T1 cells transfected with the labelled siRNA; cisplatin added 24 hours post transfection, 72 hour incubation. The procedure: as §1
In data set [4] the test system is TOV112D cells. The data set is described as above. The procedure:
as §1

Data set [5] has as its system SK-N-BE2 cells. The description is as above. The conditions noted are these: SK-N-BE2 cells transfected with the labelled siRNA; cisplatin added 24 hours post transfection, 72 hour incubation. The procedure: as §1
For data set [6], the system named is CHLA-90 cells. Described as above. The procedure:
as §1

Data set [7] deals with CHLA-136 cells. Described as above. The method, then: as §1
The subject of data set [8] is RH41 cells. Described as above. The conditions noted are these: RH41 cells transfected with the labelled siRNA; cisplatin added 24 hours post transfection, 72 hour incubation. The method, then: as §1
Data set [9] has as its system KELLY cells. The data set is described as above. The conditions noted are these: KELLY cells transfected with the labelled siRNA; cisplatin added 24 hours post transfection, 72 hour incubation. The method, then:
as §1

Data set [10] deals with CHLA-172 cells. The data set is described as above. The method, then:
as §1

Data set [11] concerns COV362 cells. Described as above. The procedure:
as §1

Data set [12] has as its system SKNAS cells. As to the kind of experiment: Carboplatin IC50 in siRNA-transfected cells, Cell Titer Glo 2.0 viability (Example 6). The procedure: (§2) GPC2 mRNA expression was reduced using the indicated siRNAs and changes in cell viability were assessed in multiple neuroblastoma cell lines. Cells were transfected with either a control siRNA or with GPC2 siRNA sequences 3, 5 or 7 from Table 7 using the RNAiMAX Lipofectamine kit (Invitrogen, Carlsbad, Calif.) as previously described in 96 wells for viability assays. Carboplatin was added at increasing concentrations (0 to 150 uM) to transfected cells at 24 hours post transfection. Following a 72 hour incubation period, viability measurements were made using Cell Titer Glo 2.0.

For data set [13], the system named is CHLA-136 cells. The description is as above. The procedure: as §2
In data set [14] the test system is KELLY cells. The description is as above. The conditions noted are these: KELLY cells transfected with the labelled siRNA; carboplatin added 24 hours post transfection, 72 hour incubation. The method, then: as §2
Data set [15] concerns CHLA-172 cells. The data set is described as above. The method, then:
as §2

For data set [16], the system named is spheroids from CHP212, SKNAS, SK-N-BE2 and CHLA90 neuroblastoma cells. As to the kind of experiment: Viability of established spheroid cultures after siRNA transfection (Example 11). The conditions noted are these: 96 hour following transfection; where GPC2 knockdown was observed (FIG. 7B). The procedure:
The effect of siRNA mediated GPC2 mRNA knockdown was also assessed on established spheroid cultures. Spheroids were established by seeding cells in low attachment plates and culturing for 96 hours. Spheroids were transfected with either a scrambled control siRNA or with GPC2 siRNA of sequence 5 or 7 from Table 7, using the RNAiMAX Lipofectamine kit (Invitrogen, Carlsbad, Calif.) as previously described. At the 96 hour time point following transfection, the degree of GPC2 mRNA knockdown (FIG. 7A) as well as spheroid viability (FIG. 7B) was measured.

The subject of data set [17] is CHP212 cells. Briefly: Topotecan IC50 in siRNA-transfected cells, Cell Titer Glo 2.0 viability (Example 10). The procedure:
(§3) GPC2 mRNA expression was reduced and changes in cell viability were assessed in multiple neuroblastoma cell lines. Cells were transfected with either a control siRNA or with GPC2 siRNA sequences 5 or 7 from Table 7 using the RNAiMAX Lipofectamine kit (Invitrogen, Carlsbad, Calif.) as previously described in 96 wells for viability assays. Topotecan was added at increasing concentrations (0-5 uM) to transfected cells at 24 hours post transfection. Following a 72 hour incubation period, viability measurements were made using Cell Titer Glo 2.0.

Data set [18] deals with SH-SY5Y cells. The data set is described as above. The method, then: as §3
The subject of data set [19] is SKNAS cells. The data set is described as above. The procedure: as §3
For data set [20], the system named is SK-N-BE2 cells. The description is as above. The procedure: as §3
In data set [21] the test system is CHLA-90 cells. The description is as above. The procedure: as §3
Data set [22] has as its system KELLY cells. The description is as above. The procedure:
as §3

The IC50 is the concentration that gives 50% inhibition. Consider “GPC2 siRNA 3: siRNA duplex: sense CCUGCUUGGACCUCGAUAA[dT][dT] (SEQ ID NO: 207), anti-sense UUAUCGAGGUCCAAGCAGG[dT][dT] (SEQ ID NO: 208) (sense CCUGCUUGGACCUCGAUAANN; antisense UUAUCGAGGUCCAAGCAGGNN; 3' dTdT overhangs, chemistry not fully specified; listed as Homo sapiens)”, for which, in data set [1], the “Viability decrease among sequences 3, 5, 12-15” value is recorded as “greater viability decrease”. For the same substance, the “Data Summary: effect of knockdown on sensitivity to cisplatin” value in [2] (RH30) is given as “does not increase”; in data set [4] (TOV112D) it was “does not increase”; in data set [6] (CHLA-90), “increases sensitivity to”; in data set [7] (CHLA-136), “increases sensitivity to”; in data set [10] (CHLA-172), “does not increase”; in [11] (COV362), “does not increase”. The concentration for half-maximal inhibition (IC50) in [2] (RH30 cells transfected with the labelled siRNA, cisplatin added 24 hours post transfection, 72 hour incubation) was found to be 2.1 µM; in [3] it was 13 µM; in [4] (TOV112D cells transfected with the labelled siRNA, cisplatin added 24 hours post transfection, 72 hour incubation), 5 µM; in data set [5], 8 µM; in [6] (CHLA-90 cells transfected with the labelled siRNA, cisplatin added 24 hours post transfection, 72 hour incubation) it was 15 µM; in data set [7] (CHLA-136 cells transfected with the labelled siRNA, cisplatin added 24 hours post transfection, 72 hour incubation), 11 µM. Also, the 50% inhibitory concentration (IC50) was found to be 3.2 µM in data set [8]; 21.7 µM in [9]; 16 µM in data set [10] (CHLA-172 cells transfected with the labelled siRNA, cisplatin added 24 hours post transfection, 72 hour incubation); 6.4 µM in data set [11] (COV362 cells transfected with the labelled siRNA, cisplatin added 24 hours post transfection, 72 hour incubation); 40 µM in [12] (SKNAS cells transfected with the labelled siRNA, carboplatin added 24 hours post transfection, 72 hour incubation); 47 µM in data set [13] (CHLA-136 cells transfected with the labelled siRNA, carboplatin added 24 hours post transfection, 72 hour incubation). For the same substance, the IC50 in data set [14] turned out to be 12 µM; in data set [15] (CHLA-172 cells transfected with the labelled siRNA, carboplatin added 24 hours post transfection, 72 hour incubation) it was 100 µM. Further, the entries for the “Data Summary: effect of knockdown on sensitivity to carboplatin” value in [12] (SKNAS), in data set [13] (CHLA-136) and in data set [15] (CHLA-172) were “increases sensitivity to”, “not increase sensitivity” and “increases sensitivity to”, respectively.

Turning to “GPC2 siRNA 7: siRNA duplex: sense CUCCUUUCUGGUUCACACA[dT][dT] (SEQ ID NO: 215), anti-sense UGUGUGAACCAGAAAGGAG[dT][dT] (SEQ ID NO: 216) (sense rCrUrCrCrUrUrUrCrUrGrGrUrUrCrArCrArCrAdTdT; antisense rUrGrUrGrUrGrArArCrCrArGrArArArGrGrArGdTdT; listed as Homo sapiens)”, the “Viability of established spheroids” value in [16] is “a decrease in spheroid viability was also seen”. Further, the “Data Summary: effect of knockdown on sensitivity to topotecan” value in data set [17] (CHP212) is “not increase sensitivity to topotecan”; in data set [18] (SH-SY5Y), “not increase sensitivity to topotecan”; in [19] (SKNAS) it was “increases sensitivity to topotecan”; in data set [20] (SK-N-BE2) it was “not increase sensitivity to topotecan”; in data set [21] (CHLA-90), “not increase sensitivity to topotecan”; in [22] (KELLY) it was “not increase sensitivity to topotecan”. Besides, the IC50 in [17] (CHP212 cells transfected with the labelled siRNA, topotecan added 24 hours post transfection, 72 hour incubation) stood at 0.01 µM; in [18] (SH-SY5Y cells transfected with the labelled siRNA, topotecan added 24 hours post transfection, 72 hour incubation) it was 0.04 µM; in data set [19] (SKNAS cells transfected with the labelled siRNA, topotecan added 24 hours post transfection, 72 hour incubation) it was 0.02 µM; in data set [20] (SK-N-BE2 cells transfected with the labelled siRNA, topotecan added 24 hours post transfection, 72 hour incubation), 0.01 µM; in [21] (CHLA-90 cells transfected with the labelled siRNA, topotecan added 24 hours post transfection, 72 hour incubation), 0.14 µM; in data set [22] (KELLY cells transfected with the labelled siRNA, topotecan added 24 hours post transfection, 72 hour incubation) it was 0.02 µM.
